Values quoted from earlier work as cited in patent US12611419B2, “Liposomal composition for use in a method of treating Parkinson's disease” (INNOMEDICA HOLDING AG, priority 2017, dated 2026).

Tests used:
[1] = test system: rodent model of Parkinson's disease; conditions: in vivo
spinal cord injuries = conditions: patients
B4galnt1 transgenic mice = conditions: mice deficient in GM1 family gangliosides

| Compound | Parkinson's symptoms [1] | outcome in spinal cord injuries (spinal cord injuries) | safety, open pilot study (PD patients; 10 PD patients, 1000 mg i.v. then 200 mg/day subcutaneous, 18 weeks) | anti-GM1 antibody titres, open pilot study (PD patients; 10 PD patients, 18 weeks) | PET (11)C-methylphenidate binding (PD patients; GM1-treated groups, baseline, week 24, 1-2 years later) | safety of long-term administration (PD patients; delayed start study) | UPDRS motor scores, early-start group (PD patients; delayed start study, week 24) | UPDRS motor scores, five-year open extension (PD patients; end of 5 years of GM1 use, off period) | UPDRS motor scores vs placebo (PD patients; randomized placebo-controlled study, 45 individuals, 16 weeks) | adverse events at the injection site (PD patients; subcutaneous administration) | pathological CNS manifestations (B4galnt1 transgenic mice) |
| --- | --- | --- | --- | --- | --- | --- | --- | --- | --- | --- | --- |
| CCCCCCCCCCCCC/C=C/C(O)C(COC1OC(CO)C(OC2OC(CO)C(OC3OC(CO)C(O)C(OC4OC(CO)C(O)C(O)C4O)C3NC(C)=O)C(OC3(C(=O)O)CC(O)C(NC(C)=O)C(C(O)C(O)CO)O3)C2O)C(O)C1O)NC(=O)C(Cl)Cl (centres unmarked) [LIGA20] | reduce Parkinson's symptoms |  |  |  |  |  |  |  |  |  |  |
| monosialotetrahexosylganglioside [GM1] |  | positive outcomes in patients | safe and well tolerated | none of the patients developed elevated anti-GM1 antibody titres | significant slowing of binding loss in several striatal regions | safe and well tolerated | significant improvement in UPDRS motor scores | lower UPDRS motor scores | significant differences between groups | pain, irritation of the skin site and severe haematoma at the injection site occur | ameliorated these pathological CNS manifestations |
